Results from patent US12447159B2 (AELIS FARMA, priority 2018, dated 2025).
“Also recorded” adds a separate entry of the source.

How the values were obtained:
[1] = Distribution in the brain of mice; type: in vivo
CYP 2C9 = CYP 2C9 (Homo sapiens, UniProt P11712); assay: CYP inhibition in human liver microsomes; details: 10 μM
From the text: Reaction was initiated by adding NADPH-generating compounds and after stopping of reaction and samples treatment; HPLC-UV/VIS and HPLC-MS/MS detection were used for detection of peak areas corresponding to the metabolite of each substrate.

[2] = Metabolic stability in human liver microsomes (HLM); type: in vitro ADME; details: human LM, NADPH
Description: The investigation was performed on liver microsomes (LM) coming from mouse (MLM), rat (RLM), dog (DLM) and human (HLM).
3pMBP was incubated with liver microsome pools supplemented with NADPH as cofactor. Samples were taken at 5 different times (0, 10, 20, 30 and 60 minutes) and samples were monitored for parent compound disappearance in MRM mode using LC/MS-MS. The Intrinsic Clearance and half-life have been determined. Verapamil was used as reference compound.

male Wistar rats = assay: Irwin test and body temperature in rats (GLP); type: in vivo; details: 2, 9 and 36 mg/kg, single oral
Description: The study involved 4 groups of 6 male Wistar rats weighing between 154.0 and 185.9 g.
On study day, animals were firstly scored by the Irwin standardized observation battery and the body temperature was measured. […] Then the Irwin scores as well as measurement of body temperature were performed again at 1, 3, 6, 8 and 24 hours after the administration.

[3] = system: 85 receptors (CEREP High-throughput profile+4 steroid receptors+Cannabinoid type 2 receptor); assay: CEREP High-throughput binding profile (85 receptors)
From the text: The CEREP High-throughput profile consists of a broad collection of 80 transmembrane and soluble receptors, ion channels and G-Protein coupled receptors.

[4] = system: THC-induced object recognition impairment; assay: THC-induced impairment of long-term memory (object recognition test); details: per os 3 h before THC 6 mg/kg ip; mice
From the text: Ten minutes before THC injection, mice were allowed to explore 2 identical objects in an “L”-shaped maze. The day after, one object was replaced by a novel one. […] The comparison of the time spent exploring the familiar and the novel objects is used as an index of discrimination between familiarity and novelty. Therefore, this parameter is used to evaluate object recognition performances.

[5] = system: diet-induced obese (DIO) mouse model; assay: Repeated treatment: food intake and body weight in diet-induced obese (DIO) mice; type: in vivo
Description: Male C57BL/6J mice were fed ad libitum with a high-fat diet (HFD) for 8 weeks before the start of the pharmacological treatments. During pharmacological treatments, the HFD was maintained and food intake and body weight were measured daily. The food consumed was calculated by subtracting the food left in the hoppers from the initial pre-weighted amount. […] 3pMBP and rimonabant were administered by oral gavage once a day, two hours before the start of the dark phase of the light/dark cycle.

[6] = system: THC-induced conditioned gaping; assay: THC-induced conditioned gaping behavior; type: in vivo; details: rats
Description: Three days after cannulation surgery, rats were adapted to the taste reactivity chamber. Rats were individually placed in a Taste Reaction (TR) chamber with their cannulas attached to an infusion pump to infuse water into their intraoral cavity over a period of 2 min at the rate of 1 ml/min and then returned to their home cage. Rats received the first of three daily conditioning trials three days after the adaptation trial. […] Rats received the pre-treatment drug 3 hours prior to conditioning via feeding tube. They were then placed in the TR chamber and infused with 0.1% saccharin solution for 2 min at a rate of 1 ml/min while orofacial reactions were recorded. Immediately following saccharin infusion, the rats were injected […] with 10 mg/kg THC or VEH and returned to their home cage. Twenty-four hour later, the rats underwent a drug free test trial where they were placed in the TR chamber and infused with 0.1% saccharin solution for 2 min at a rate of 1 ml/min and orofacial reactions were recorded.

OATP1B1 = OATP1B1 (Homo sapiens, UniProt Q9Y6L6); assay: Cellular transporter inhibition, CHO cells (fluorometry); details: 10 μM
Chain of OATP1B1 (Q9Y6L6 whole entry): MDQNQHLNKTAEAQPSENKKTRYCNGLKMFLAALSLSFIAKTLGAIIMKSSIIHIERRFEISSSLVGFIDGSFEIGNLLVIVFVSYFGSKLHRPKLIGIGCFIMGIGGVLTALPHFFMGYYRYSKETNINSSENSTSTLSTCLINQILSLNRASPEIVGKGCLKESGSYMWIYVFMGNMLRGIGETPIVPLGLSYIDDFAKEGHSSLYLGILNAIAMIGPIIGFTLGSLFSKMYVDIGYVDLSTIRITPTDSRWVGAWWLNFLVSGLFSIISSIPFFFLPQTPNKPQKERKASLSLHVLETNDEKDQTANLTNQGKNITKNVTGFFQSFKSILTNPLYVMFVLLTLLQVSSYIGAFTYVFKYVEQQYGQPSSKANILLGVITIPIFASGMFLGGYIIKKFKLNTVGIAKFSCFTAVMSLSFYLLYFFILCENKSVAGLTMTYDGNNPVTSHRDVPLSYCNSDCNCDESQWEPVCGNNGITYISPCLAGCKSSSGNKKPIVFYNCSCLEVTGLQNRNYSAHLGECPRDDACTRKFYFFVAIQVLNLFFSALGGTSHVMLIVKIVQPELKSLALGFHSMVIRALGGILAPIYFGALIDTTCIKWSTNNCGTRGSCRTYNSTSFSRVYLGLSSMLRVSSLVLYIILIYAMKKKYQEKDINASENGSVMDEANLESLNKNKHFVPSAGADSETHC
Description: (§1) Chinese Hamster Ovary (CHO) were used for all transporters except for P-gp that was studied in Madin-Darby Canine Kidney (MDR1-MDCKII) cells. The inhibition of the activity of each transporter is evaluated by measuring changes in the transport of their specific substrates by fluorometry.

[7] = system: diet-induced obese (DIO) mouse model; assay: Repeated treatment: food intake and body weight in diet-induced obese (DIO) mice; type: in vivo; details: vs vehicle; Rimo 10 mg/kg ip; 3pMBP 0.005-15 mg/kg per os
THC dependent mice = assay: Precipitated withdrawal in mice chronically treated with THC; type: in vivo; details: mice repeatedly treated with THC 20 mg/kg ip; Rimo 10 mg/kg ip; 3pMBP […] per os
Description: The chronic THC regimen (20 mg/kg, twice a day) used in these experiments has been chosen because it mimics heavy marijuana use (Cook et al., 1998) and is considered as a model of cannabinoids dependence in mice (Cutando et al., 2013; Hutcheson et al., 1998). […] From day 1 to 4-5, mice were injected ip with vehicle or THC (20 mg/kg in NaCl 0.9% containing 2% ethanol and 2% Tween80, 10 ml/kg) twice a day. […] All the other animals received the administration of the respective vehicle. […] The dose and schedule of administration of rimonabant chosen for this study has been commonly used to precipitate THC withdrawal in mice (Cook et al. 1998, Hutcheson et al., 1998, Huang et al., 2009).
For the measure of precipitated withdrawal, mice were placed in a novel home cage and a video camera positioned in front of each cage recorded animals' behaviors. Scoring was performed for 1 minute every 5 min-period. Two withdrawal signs were analyzed: paw tremors and head shaking, since they are the most common signs of THC withdrawal observed in mice (Cook et al. 1998, Hutcheson et al., 1998, Lichtman et al., 2001).

[8] = molecular target: T1, human CB1 (hCB1) receptor (Homo sapiens, UniProt P21554); assay: THC-induced increase in MAPK phosphorylation, HEK-293 cells transiently transfected with hCB1 (western blot, P-MAPK/MAPK); type: cell-based; details: THC 10 μM, 5 min; HEK-293 transiently expressing the hCB1
T1 construct: expressed in transfected cells; host or cells: HEK-293
T1 sequence (P21554 whole entry): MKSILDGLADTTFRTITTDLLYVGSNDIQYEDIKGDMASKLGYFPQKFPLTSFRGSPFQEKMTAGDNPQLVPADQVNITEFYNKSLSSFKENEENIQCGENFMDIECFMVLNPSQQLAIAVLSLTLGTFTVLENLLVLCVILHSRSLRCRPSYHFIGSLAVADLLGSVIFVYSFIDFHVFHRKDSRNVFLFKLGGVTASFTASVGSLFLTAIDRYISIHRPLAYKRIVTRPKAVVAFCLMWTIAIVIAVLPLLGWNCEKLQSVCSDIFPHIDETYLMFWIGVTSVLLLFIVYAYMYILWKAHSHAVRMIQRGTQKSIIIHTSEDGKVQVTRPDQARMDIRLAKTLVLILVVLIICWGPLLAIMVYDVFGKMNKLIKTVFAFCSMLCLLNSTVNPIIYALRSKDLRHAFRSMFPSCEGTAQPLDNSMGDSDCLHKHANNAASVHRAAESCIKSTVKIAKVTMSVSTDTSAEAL
Description: The difference in the concentrations of THC used in the two experiments is related to the different efficiency of transfection of hCB1 cDNA plasmid, which is stable in Experiment 1 and transient in Experiment 2.
MAPK phosphorylation (P-Erk1/2MAPK proteins) was measured by western blot. In experiment 1 the mitochondrial marker CoxIV and in experiment 2 the un-phosphorylated MAPK proteins were used as loading controls. The P-MAPK/CoxIV and P-MAPK/MAPK ratios were calculated and the data expressed as % of vehicle-treated cells.

[9] = system: testosterone, DHEA and allopregnanolone; assay: Conversion in downstream steroids, dogs (GC/MS-MS); type: in vivo; details: male and female dogs; acute or repeated (28 days) 2, 9 and 36 mg/kg
Description: In all these studies plasma concentrations of steroids were measured by gas chromatography-tandem mass spectrometry (GC/MS-MS).

OAT3 = OAT3 (Homo sapiens, UniProt Q8TCC7); assay: Cellular transporter inhibition, CHO cells (fluorometry); details: 10 μM
Chain of OAT3 (Q8TCC7 whole entry): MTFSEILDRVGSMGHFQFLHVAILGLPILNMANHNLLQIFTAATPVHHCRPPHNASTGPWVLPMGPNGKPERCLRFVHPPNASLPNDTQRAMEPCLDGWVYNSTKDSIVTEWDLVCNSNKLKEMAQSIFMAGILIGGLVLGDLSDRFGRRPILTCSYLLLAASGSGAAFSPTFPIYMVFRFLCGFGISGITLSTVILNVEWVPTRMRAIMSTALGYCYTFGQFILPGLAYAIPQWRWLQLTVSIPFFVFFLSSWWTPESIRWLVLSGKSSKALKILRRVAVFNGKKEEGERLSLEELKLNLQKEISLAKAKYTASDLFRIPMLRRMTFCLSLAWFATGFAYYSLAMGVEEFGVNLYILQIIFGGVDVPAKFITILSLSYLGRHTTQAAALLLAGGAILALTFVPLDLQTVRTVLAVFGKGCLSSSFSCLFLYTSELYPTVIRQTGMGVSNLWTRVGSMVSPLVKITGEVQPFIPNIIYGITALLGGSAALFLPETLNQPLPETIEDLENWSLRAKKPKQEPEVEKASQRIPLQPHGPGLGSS
Description: as §1

[10] = 3 h prior to conditioning with THC 10 mg/kg

Chain of CYP 2C9 (P11712 whole entry): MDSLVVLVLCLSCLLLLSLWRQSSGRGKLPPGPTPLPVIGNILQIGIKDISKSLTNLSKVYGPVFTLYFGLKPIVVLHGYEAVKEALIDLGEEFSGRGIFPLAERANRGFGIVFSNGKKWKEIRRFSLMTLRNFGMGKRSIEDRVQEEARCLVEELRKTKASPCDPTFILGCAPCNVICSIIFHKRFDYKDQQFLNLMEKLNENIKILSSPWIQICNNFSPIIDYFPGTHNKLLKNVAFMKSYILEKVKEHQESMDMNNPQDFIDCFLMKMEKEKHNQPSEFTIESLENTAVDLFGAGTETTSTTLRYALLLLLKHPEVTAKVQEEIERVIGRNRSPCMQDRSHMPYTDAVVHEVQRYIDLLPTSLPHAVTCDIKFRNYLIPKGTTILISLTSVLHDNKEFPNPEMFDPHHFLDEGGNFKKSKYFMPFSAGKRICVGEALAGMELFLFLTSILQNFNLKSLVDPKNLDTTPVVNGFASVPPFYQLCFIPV

With `COc1ccc(CO[C@H]2CC[C@@]3(C)C(=CC[C@H]4[C@@H]5CC[C@H](C(C)=O)[C@@]5(C)CC[C@@H]43)C2)cc1` [3pMBP, 3β-(4-methoxybenzyloxy)pregn-5-en-20-one] the “AUC in the brain vs plasma” value ([1]; conclusion sentence, species and dose not stated) was “four times higher AUC in the brain than in the plasma”, the “tmax in the brain” value ([1]; mice, per os) was 7 h and the “Inhibition of CYP 2C9 activity” value (CYP 2C9) was “no significant inhibition”. The half-life [2] was 6.83 h, the microsomal CLint ([2]; read-out: intrinsic clearance) was 3.38 µL/min/mg and the “Behavior (Irwin test) and body temperature” value (male Wistar rats) was “did not modify”. For the same compound, the “Modification of ligand binding” value ([3]; 10 μM) was “did not modify the binding of any of the 85 receptors; also recorded: did not modify the binding of these receptors or of any of the other receptors”, the IC50 ([3]; receptor binding, 85 receptors, read-out: ID50 (the source's name)) was greater than 10 µM and the “% inhibition” value [4] was 100%. For the same compound, the ID50 [4] was less than 5 µg/kg, the “Inhibition of food-intake and body weight (repeated administration): Effect (3pMBP)” value ([5]; male mice, highest dose tested 15 mg/kg) was “at none of the dose tested did modify food intake or body weight and No” and the “Food intake in obese mice” value ([5]; vs vehicle, Rimo 10 mg/kg ip, 3pMBP 0.005-15 mg/kg per os) was “but not 3pMBP (0.005, 0.015, 0.05, 5 and 15 mg/kg; per os), decreases food intake”. For the same compound, the “Establishment of conditioned gaping (mean number of gaping reactions)” value ([6]; 0.005 and […], THC 10 mg/kg) was “interfered the establishment of conditioned gaping by reducing the mean number of gaping reactions”, the “% inhibition” value [6, 10] was 50% and the ID50 [6, 10] was less than 5 µg/kg. The “Activity of OATP1B1” value (OATP1B1) was “did not modify the activity”, the “Body weight in obese mice” value [7] was “but not 3pMBP (0.005, 0.015, 0.05, 5 and 15 mg/kg; per os), decreases body weight” and the “Duration of paw tremors” value (THC dependent mice) was “but not 3pMBP (0.15 mg/kg; per os) increases the duration of paw tremors”. The “% inhibition” value [8] was 100%, the ID100 [8] was 100 nM and the “Plasma concentrations of testosterone, DHEA and allopregnanolone” value [9] was “no effect”. For the same compound, the “Activity of OAT3” value (OAT3) was “did not modify the activity”.
